Results: article PMC9977398, “Next-generation membrane-active glycopeptide antibiotics that also inhibit bacterial cell division” (Chemical Science, 2023)

Assays:
ΔamiAC MG1655 E. coli = experiment: Antibacterial activity against ΔamiAC MG1655 E. coli; type: cell-based; conditions: LB media, 18 h
Description: The bacterial amidases help cleave the septum in the final stage of cell division to produce daughter cells.[39] In the absence of amidases, chains of unseparated cells are formed (Fig. 5D). These retain distinct cytoplasmic compartments but share an outer membrane.[39] These cells are known to be hypersensitive to antibiotics and detergents. However, ΔamiAC mutations are resistant to killing by cephalexin.[38] The MIC of VanQAmC10 against the ΔamiAC mutant was reduced to 4 μM, while that of vancomycin was >10 μM. […] This is indicative of impaired cell division. Cell debris due to lysis after compound treatment are also visible. […]
resuspended in prewarmed BMM media. 1:1 BAC light dye was then added to the bacterial suspension and incubated for 5 minutes. The fluorescence in the GFP and Texas red channels was then observed under the microscope. The experiments were performed three times independently and the images are representative of results from three independent experiments. […]
(§1) About 6 μl of sample was immobilized on 1% agarose pad . DIC and fluorescence images were obtained at different time intervals using Nikon Eclipse Ti Microscope equipped with Nikon DS-U3 camera through Plan Apo 100×/1.40 oil objective. […]
from 10 μg/mL. The bacteria with compounds and untreated control were incubated for 18 h at 37 ̊C under shaking and OD600 was measured. […]

[1] = system: B. subtilis 1981 GFP-MinD; experiment: GFP-MinD localization; type: cell-based; conditions: treatment at the PEC, 15 min
From the text: MinD is a peripheral membrane protein that localizes at the cell poles and is part of the cell division regulation machinery. It has been reported that treatment with membrane-depolarizing agents like valinomycin results in the delocalization of the protein which appears in irregularly distributed spots throughout the cell. Since the compounds depolarise the bacterial membrane, their effect on the localization of the GFP-tagged MinD protein of B. subtilis was investigated. […]
resuspended in prewarmed BMM media. 1:1 BAC light dye was then added to the bacterial suspension and incubated for 5 minutes. The fluorescence in the GFP and Texas red channels was then observed under the microscope. The experiments were performed three times independently and the images are representative of results from three independent experiments.
B. subtilis 1981 GFP-MinD was cultured overnight in BMM.8 Cells were then inoculated in xylose containing BMM instead of glucose to an OD500 of 0.1 to induce expression of the GFP-MinD fusion protein. […]
as §1

Row | Compound | MIC against the ΔamiAC mutant (ΔamiAC MG1655 E. coli) [µM] | localization of GFP-MinD [1]
1 | CN[C@H](CC(C)C)C(=O)N[C@H]1C(=O)N[C@@H](CC(N)=O)C(=O)N[C@H]2C(=O)N[C@H]3C(=O)N[C@H](C(=O)N[C@H](C(=O)O)c4cc(O)cc(O)c4-c4cc3ccc4O)[C@H](O)c3ccc(c(Cl)c3)Oc3cc2cc(c3O[C@@H]2O[C@H](CO)[C@@H](O)[C@H](O)[C@H]2O[C@H]2C[C@](C)(N)[C@H](O)[C@H](C)O2)Oc2ccc(cc2Cl)[C@H]1O [Vancomycin, reference compound] | > 10 | –
2 | CCCCCCCCCCNC(=O)C[N+](C)(C)CCCNC(=O)C1NC(=O)C2NC(=O)C(NC(=O)C3NC(=O)C(CC(N)=O)NC(=O)C(NC(=O)C(CC(C)C)NC)C(O)c4ccc(c(Cl)c4)Oc4cc3cc(c4OC3OC(CO)C(O)C(O)C3OC3CC(C)(N)C(O)C(C)O3)Oc3ccc(cc3Cl)C2O)c2ccc(O)c(c2)-c2c(O)cc(O)cc21 (stereo not shown) [VanQAmC10 (8)] | 4 | irregular distribution of GFP-labelled MinD across the cells
3 | CNC(CC(C)C)C(=O)NC1C(=O)NC(CC(N)=O)C(=O)NC2C(=O)NC3C(=O)NC(C(=O)NC(C(=O)NCCC[N+](C)(C)Cc4ccc(-c5ccccc5)cc4)c4cc(O)cc(O)c4-c4cc3ccc4O)C(O)c3ccc(c(Cl)c3)Oc3cc2cc(c3OC2OC(CO)C(O)C(O)C2OC2CC(C)(N)C(O)C(C)O2)Oc2ccc(cc2Cl)C1O (stereo not shown) [VanQbiph (4)] | – | irregular distribution of GFP-labelled MinD across the cells
